Test results as given in US20230192700A1, “PYRAZOLOPYRAZINES ACTING ON CANCERS VIA INHIBITION OF CDK12” (Bayer Aktiengesellschaft, priority 2020, published 2023).
Where two headings read alike, the source gives them in different places.

Tests used:
[1] = biological target: T1, CDK12/CyclinK (Homo sapiens, UniProt Q9NYV4); assay: CDK12/CycK high ATP kinase assay (TR-FRET); format: biochemical; conditions: 2 mM ATP (high ATP); median; read-out: CDK12/CyclinK, 2 mM ATP (high ATP), IC50 - [mol/l] (median)
T1 construct: His-CDK12 (aa Q696-S1082); made in house; host or cells: Hi-5 insect cells (baculovirus co-infection with CycK and yeast CAK1)
T1 sequence (Q9NYV4 with tags, fused parts or gaps): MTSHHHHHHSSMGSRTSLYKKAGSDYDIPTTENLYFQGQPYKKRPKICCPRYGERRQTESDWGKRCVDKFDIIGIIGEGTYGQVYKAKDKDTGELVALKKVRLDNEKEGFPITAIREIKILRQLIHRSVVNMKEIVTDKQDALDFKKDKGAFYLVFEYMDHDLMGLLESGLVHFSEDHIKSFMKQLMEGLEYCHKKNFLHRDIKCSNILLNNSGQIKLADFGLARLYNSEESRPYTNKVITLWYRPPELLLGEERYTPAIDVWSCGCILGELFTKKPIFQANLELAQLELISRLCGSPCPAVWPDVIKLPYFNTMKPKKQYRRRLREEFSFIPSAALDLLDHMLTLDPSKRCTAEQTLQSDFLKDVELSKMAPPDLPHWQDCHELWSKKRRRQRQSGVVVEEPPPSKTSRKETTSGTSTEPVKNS
T1 sequence (O75909 with tags, fused parts or gaps partner limits assumed): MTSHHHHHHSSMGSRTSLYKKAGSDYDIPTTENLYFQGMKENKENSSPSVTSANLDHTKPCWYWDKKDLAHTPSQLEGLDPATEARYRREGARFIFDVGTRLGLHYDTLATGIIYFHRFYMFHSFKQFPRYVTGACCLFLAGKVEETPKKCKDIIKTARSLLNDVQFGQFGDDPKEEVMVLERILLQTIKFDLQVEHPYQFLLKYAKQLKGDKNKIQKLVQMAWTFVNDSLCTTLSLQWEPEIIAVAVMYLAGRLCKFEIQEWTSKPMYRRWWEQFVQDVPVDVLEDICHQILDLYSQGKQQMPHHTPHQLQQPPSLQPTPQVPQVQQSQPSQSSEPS
Outline: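 Human His-tagged CDK12/CycK (about 0.75 nM) preincubated with compound 15 min, then reacted 60 min at 22 °C with 2 mM ATP and 1 µM biotinylated peptide in HEPES pH 7.5 buffer. Phospho-Ser62 c-Myc epitope detected by TR-FRET (665/620 nm ratio); data normalised to no-inhibitor and no-enzyme controls.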

[2] = system: BRCA1 mRNA expression in MDA-MB-231 cells; assay: qRT-PCR assay: inhibition of BRCA1 mRNA expression in MDA-MB-231 cells; format: cell-based, human; conditions: 24 h exposure, BRCA1 mRNA normalised to GAPDH, median, read-out: RTqPCR-MDA-MB-231 IC50 [mol/l] BRCA1 (median)
Experimental: (§1) 3. qRT-PCR Assay: BRCA1, ATR, MCL1 in MDA-MB-231, CAL-120
(§2) Tissue cultured human MDA-MB-231 human breast cancer cells were plated in 500 microL per well at 200,000 cells/well in a 24 well microtiter plate. After 24 h, the cells were exposed continuously for 24 h to test substances (substances were added with Tecan HP D300 Dispenser). RNA was prepared using Qiagen RNeasy MiniKit (#74106), RNA was quantified using a NanoDrop Equipment, and 600 nano gamms of RNA was coverted to cDNA using a SuperScript VILO kit (Thermofisher #11755050) followed by qPCR amplification. BRCA1 and ATR gene expression was measured by RT-qPCR and normalised to GAPDH housekeeping gene expression. qPCR primer sets have been purchased from Thermo Fisher Scientific/Applied Biosystems: BRCA1, # Hs 01556193; ATR, #Hs 00992123; GAPDH, #Hs 03929097.

[3] = system: BRCA1 mRNA expression in CAL-120 cells; assay: qRT-PCR assay: inhibition of BRCA1 mRNA expression in CAL-120 cells; format: cell-based; conditions: Homo sapiens, median, read-out: RTqPCR-CAL-120 IC50 [mol/l] BRCA1 (median)
Experimental: as §1, §2

Row | IC50 [1] | IC50 [3] | SMILES | IC50 ([2]; Homo sapiens, MDA-MB-231, 24 h) | IC50 [2]
1 | > 20000 nM | 64.3 nM | c1ccc2[nH]c(CNc3nn(C4CCOCC4)c4nc(C5CC5)cnc34)nc2c1 [Example 16, N-[(1H-benzimidazol-2-yl)methyl]-6-cyclopropyl-1-(oxan-4-yl)-1H-pyrazolo[3,4-b]pyrazin-3-amine] | 12.9 nM | 
2 | > 20000 nM |  | Cc1c(Cl)ccc2[nH]c(CNc3nn(C4CCN(C)CC4)c4nc(C5CC5)cnc34)nc12 [Example 21, N-[(5-chloro-4-methyl-1H-benzimidazol-2-yl)methyl]-6-cyclopropyl-1-(1-methylpiperidin-4-yl)-1H-pyrazolo[3,4-b]pyrazin-3-amine] | 26.1 nM | 
3 | 13800 nM |  | Fc1ccc2[nH]c(CNc3nn(C4CCOCC4)c4nc(C5CC5)cnc34)nc2c1F [Example 32, 6-cyclopropyl-N-[(4,5-difluoro-1H-benzimidazol-2-yl)methyl]-1-(oxan-4-yl)-1H-pyrazolo[3,4-b]pyrazin-3-amine] | 29 nM | 
4 | > 20000 nM |  | CC1CC(n2nc(NCc3nc4ccccc4[nH]3)c3ncc(C4CC4)nc32)CCN1C (racemic) [Example 41, (±)-cis/trans-N-[(1H-benzimidazol-2-yl)methyl]-6-cyclopropyl-1-(1,2-dimethylpiperidin-4-yl)-1H-pyrazolo[3,4-b]pyrazin-3-amine] | 20.6 nM | 
5 | 17300 nM |  | CN1CCC(n2nc(NCc3nc4cc(C(F)(F)F)ccc4[nH]3)c3ncc(C4CC4)nc32)CC1 [Example 25, 6-cyclopropyl-1-(1-methylpiperidin-4-yl)-N-{[5-(trifluoromethyl)-1H-benzimidazol-2-yl]methyl}-1H-pyrazolo[3,4-b]pyrazin-3-amine] | 5.88 nM | 
6 | > 20000 nM |  | COCCC(C)n1nc(NCc2nc3ccccc3[nH]2)c2ncc(C3CC3)nc21 (single isomer, unassigned; (+)) [Example 59, (+)-N-[(1H-benzimidazol-2-yl)methyl]-6-cyclopropyl-1-[4-methoxybutan-2-yl]-1H-pyrazolo[3,4-b]pyrazin-3-amine] |  | 248 nM
